Test results reported in patent US9371265B2, “Compositions and methods related to inhibitors of JAK kinase” (EP PHARMA, INC., priority 2012, dated 2016).

Assays:
MET = MET (Homo sapiens, UniProt P08581); assay: Kinase panel: MET; type: biochemical; conditions: 10 μM EP009
Protocol: (§1) Achieving JAK3 selectivity remains a significant challenge in the development of new small molecules for the treatment of cancer and immune-derived diseases. As such, the inventors employed cell-based screening assays of small-molecule libraries based upon the chemical scaffold of the established JAK3 inhibitor NC1153 (Stepkowski et al., J Immunol. (2005), 175(7):4236-4246) EP009 (FIG. 2A) was selected as a lead compound due to improved intrinsic stability (>95% purity in various solvents at 37° C. for 24 hours; FIG. 3) and high-degree of JAK3 selectivity. To test JAK3 versus JAK2 specificity of EP009, the IL-2/JAK3-dependent Kit225, and IL-3/JAK2-dependent BaF/3 cell lines were used. Kit225 and BaF/3 cells growing in the presence of IL-2 or IL-3, respectively, were treated with ascending concentrations of EP009 for 12 hours and cellular JAK3 and JAK2 tyrosine phosphorylation levels detected by Western blot analysis (FIGS. 2B and 2C). Following densitometric analysis, EP009 was determined to dose-dependently reduce IL-2-mediated JAK3 tyrosine phosphorylation with a cellular 50% inhibitory concentration (IC50) between 10 and 20 μM (FIG. 2B). […] To globally evaluate specificity, the inhibitory activity of EP009 was measured against a panel of protein kinases distributed throughout the kinome using the scanEDGE profiling service (KINOMEscan). […]

[1] = Stability analysis in solvents using NMR and HPLC; type: physicochemical
Protocol: FIG. 3. EP009 is structurally stable under varying solvent and temperature conditions. EP009 was dissolved in DMSO, DMSO:H20 (3:2 ratio), or methanol, and incubated at 25° C. or 37° C. for 24 hours.
FIG. 11 illustrates the dose-dependent effect of (FIG. 11A) freshly prepared EP-009(P) and (FIG. 11B) EP-009(P) stored in aqueous conditions for 48 hr at room temperature on IL-2/JAK3-dependent Kit225 cell viability. FIG. 12 illustrates LC-MS/MS detection of EP-009 (5 ng/ml) in mouse plasma at a retention time of 1.91 min.

[2] = system: IL-2/JAK3-dependent Kit225 cells; assay: Kit225 cell viability (MTS); type: cell-based, human
Protocol: FIGS. 2A-2F. […] (B) Kit225 or (C) BaF/3 cells cultured in the presence of IL-2 or IL-3, respectively, were treated with vehicle (PBS; lane a) or increasing amounts of EP009 (0-50 μM; lanes b-h) for 12 hours. Cells were then lysed, clarified, and immunoprecipitated (IP) with anti-JAK3 (α-JAK3) or anti-JAK2 (α-JAK2), and subjected to Western blot (WB) analysis with anti-phosphotyrosine (α-pY). Blots were stripped and reprobed with corresponding antibody to verify equivalent protein loading. (D) Immunopurified JAK3 was subjected to in vitro autokinase analysis after treatment with vehicle (DMSO; lanes a and b) or ascending concentrations of EP009 (0-10 μM; lanes c-f) for 1 hour at room temperature. […] (E) Kit225 or BaF/3 cells were cultured with increasing amounts of EP009 (0-10 μM) for 72 hours and cell viability measured with the MTS tetrazolium salt assay. Values represent mean absorbance (OD490-OD650 nm) normalized to vehicle (PBS) treated control cells, while error bars represent the standard deviation (n=3). (F) HEK293, HEPG2, or naïve primary human PBMCs were cultured with increasing amounts of EP009 (0-10 μM) for 72 hours and cell viability measured with the MTS tetrazolium salt assay. Values represent mean absorbance (OD490-OD650 nm) normalized to vehicle (PBS) treated control cells, while error bars represent the standard deviation (n=3). […]

LKB1 = LKB1 (Homo sapiens, UniProt Q15831); assay: Kinase panel: LKB1; type: biochemical; conditions: 10 μM EP009
Chain of LKB1 (Q15831 whole entry): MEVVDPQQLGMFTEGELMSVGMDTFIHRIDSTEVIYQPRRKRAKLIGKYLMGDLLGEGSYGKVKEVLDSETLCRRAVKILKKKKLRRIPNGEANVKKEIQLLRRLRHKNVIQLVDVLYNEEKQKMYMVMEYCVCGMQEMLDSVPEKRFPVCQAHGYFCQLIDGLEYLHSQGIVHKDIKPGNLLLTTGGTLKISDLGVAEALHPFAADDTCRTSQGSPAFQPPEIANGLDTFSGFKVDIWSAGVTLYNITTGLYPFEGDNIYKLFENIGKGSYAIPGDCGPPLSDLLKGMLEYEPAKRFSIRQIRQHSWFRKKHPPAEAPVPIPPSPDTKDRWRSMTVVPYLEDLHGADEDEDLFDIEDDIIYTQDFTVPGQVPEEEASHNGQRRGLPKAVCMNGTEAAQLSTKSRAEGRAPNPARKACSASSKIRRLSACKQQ
Protocol: as §1

Chain of MET (P08581 25-1390): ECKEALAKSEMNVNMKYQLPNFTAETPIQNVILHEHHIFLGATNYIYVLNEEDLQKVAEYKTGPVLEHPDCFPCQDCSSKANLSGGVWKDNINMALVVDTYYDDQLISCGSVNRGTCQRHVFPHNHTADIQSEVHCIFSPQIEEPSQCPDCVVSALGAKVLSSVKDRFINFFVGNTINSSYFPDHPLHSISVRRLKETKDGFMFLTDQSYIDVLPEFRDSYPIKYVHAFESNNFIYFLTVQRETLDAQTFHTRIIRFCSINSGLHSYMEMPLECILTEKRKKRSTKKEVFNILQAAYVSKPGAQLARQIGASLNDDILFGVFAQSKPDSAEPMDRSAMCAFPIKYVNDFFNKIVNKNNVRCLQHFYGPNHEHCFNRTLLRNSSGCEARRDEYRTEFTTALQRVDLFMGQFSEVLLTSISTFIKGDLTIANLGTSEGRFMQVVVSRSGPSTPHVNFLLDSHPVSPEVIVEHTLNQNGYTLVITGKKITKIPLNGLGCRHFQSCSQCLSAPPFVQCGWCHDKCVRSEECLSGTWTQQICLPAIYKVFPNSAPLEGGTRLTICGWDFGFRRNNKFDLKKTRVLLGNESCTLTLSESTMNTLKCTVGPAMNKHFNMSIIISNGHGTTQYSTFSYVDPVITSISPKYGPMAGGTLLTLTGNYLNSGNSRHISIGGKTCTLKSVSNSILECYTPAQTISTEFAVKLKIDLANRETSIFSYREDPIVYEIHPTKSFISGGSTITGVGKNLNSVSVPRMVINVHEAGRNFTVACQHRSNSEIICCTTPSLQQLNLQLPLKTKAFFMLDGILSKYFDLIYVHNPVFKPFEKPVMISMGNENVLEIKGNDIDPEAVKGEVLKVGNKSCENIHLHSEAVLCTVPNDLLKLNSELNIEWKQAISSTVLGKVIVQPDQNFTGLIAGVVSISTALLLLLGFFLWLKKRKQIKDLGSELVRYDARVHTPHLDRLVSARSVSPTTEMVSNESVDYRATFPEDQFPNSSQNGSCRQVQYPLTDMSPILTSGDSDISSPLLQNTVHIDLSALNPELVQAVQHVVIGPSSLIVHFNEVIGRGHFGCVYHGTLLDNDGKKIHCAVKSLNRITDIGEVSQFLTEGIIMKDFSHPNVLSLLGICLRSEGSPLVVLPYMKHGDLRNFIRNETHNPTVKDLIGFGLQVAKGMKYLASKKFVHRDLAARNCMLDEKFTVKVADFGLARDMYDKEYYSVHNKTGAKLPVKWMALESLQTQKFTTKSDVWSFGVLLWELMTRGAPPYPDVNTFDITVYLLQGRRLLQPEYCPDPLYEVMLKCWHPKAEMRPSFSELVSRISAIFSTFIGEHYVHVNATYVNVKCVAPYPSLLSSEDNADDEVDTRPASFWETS

With C=C1CCCCCCCCCC(CO)C1=O (stereo not drawn) [EP009, 2-(Hydroxymethyl)-12-methylenecyclododecanone] the “Kinase Activity (% of Control)” value (MET) was 89 % of Control, the “stability under various solubility conditions” value ([1]; 24 hr at 25° C. and 37° C.) was “stabile” and the “intrinsic stability (purity)” value ([1]; various solvents at 37° C. for 24 hours) was > 95%. The “concentration resulting in maximal loss of Kit225 cell viability” value ([2]; 72 hours) was 7.5 to 10 µM, the cytotoxicity at 5 µM ([2]; Homo sapiens, Kit225, 5.0 μM EP009, 72 hours, read-out: reduction in cell viability) was 55% and the “Kinase Activity (% of Control)” value (LKB1) was 100 % of Control.
